Assay results: PubChem BioAssay AID1963842 (Molecular Pharmacology Branch, DTP, NCI, 2024)

System: 677734-321-R-J1-PDC complex spheroid viability
Experiment: Anticancer human tumor 677734-321-R-J1-PDC patient-derived soft tissue sarcoma cell line growth inhibition [POLQ]
Conditions: for IC50: curve of first compound; for viability, T/C: stronger effect = lower value
Description: Multicellular complex tumor spheroid response to Polymerase (POL) inhibitors (novobiocin, ART-558, RP6685) in combination with a variety of drugs and investigational agents in selected tumor cell lines
The POL inhibitors (novobiocin, ART-558, and RP6685) were evaluated both individually and in combination with standard of care and investigational anticancer small molecules within a complex spheroid model of solid tumors. . Complex spheroids include a stromal component modeled by human endothelial cells (HUVEC) and fibroblasts modeled by human mesenchymal stem cells (MSCs). The concentration ranges selected for each drug and investigational agent were based upon clinically achievable concentrations if the clinical Cmax of the agent was known.
Compounds. The drugs and investigational agents: novobiocin (NSC847541), ART-558 (NSC835418), RP-6685 (NSC848927), peposertib (NSC802822), ceralasertib (NSC780249), elimusertib (NSC800525), camonsertib (NSC841442), AZD-1390 (NSC803789), olaparib (NSC753686), talazoparib (NSC767125), rucaparib (NSC756644), sotorasib (NSC818433), MRTX-1133 (NSC836407), SN-38 (NSC673596), topotecan (NSC609699), epotoside (NSC141540), doxorubicin (NSC123127), gemcitabine (NSC613327), 5-fluorouracil (NSC19893), paclitaxel (NSC125973), vemurafenib (NSC761431), MSA-2 (NSC828583), SN-011 (NSC837082), adavosertib (NSC754352), prexasertib (NSC758257), carboplatin (NSC241240) and oxaliplatin (NSC266046), were obtained from the National Cancer Institute (NCI) Developmental Therapeutics Program Chemical Repository (21). The FDA-approved anticancer drug set is available from the Developmental Therapeutics Program at https://dtp.cancer.gov/organization/dscb/obtaining/. […] The stock solutions were prepared in dimethyl sulfoxide (DMSO, Sigma-Aldrich, St. Louis, MO, cat. D2650), except for the platinum compounds which were prepared in saline (Quality Biological, Gaithersburg, MD, cat. 114-055-101), at 800-fold the tested concentration and stored at -70 degrees C prior to their use. All drugs and investigational agents were tested over a range starting from a high concentration at or near the clinical Cmax and decreasing in half-log increments. If the clinical Cmax for an agent had not been determined, the highest concentration tested was 10 microM, except for SN-38, which was tested at a high concentration of 1 microM.
Cell Culture. All cells were maintained in an incubator at 37 degrees C and 5% CO2 with 95% humidity. The PDC lines were cultured according to standard operating procedures established by the NCI PDMR (https://pdmr.cancer.gov). Table 3 of the manuscript, lists the cell lines along with the number of the three cell types plated to form the mct-spheroids and media for tumor cell growth. After thawing, all PDC lines, except 997537-175-T-J1-PDC and 415267-285-R-J2-PDC, were cultured in Matrigel-coated flasks prepared with a working solution of 1X Ham's F-12 nutrient mix, without supplementation (Thermo Fisher Scientific, cat. 11765054), 100 U/mL penicillin-streptomycin (Thermo Fisher Scientific, cat. 15140122), and 2.5% Matrigel (Corning Inc., Corning, NY, cat. 354248) for the first three passages. The two PDC lines 997537-175-T-J1-PDC and 415267-285-R-J2-PDC were cultured on uncoated flasks. The 857933-349-R-J2-PDC line was cultured in 6C/Colon 1B media containing advanced DMEM/F-12 (Thermo Fisher Scientific, cat. 12634028), 10 mM HEPES (Thermo Fisher Scientific, cat. 15630080), 1X GlutaMAX supplement (Thermo Fisher Scientific, cat. 35050061), 0.1 mg/mL primocin (InvivoGen, San Diego, CA, cat. ant-pm-2), 10% defined fetal bovine serum, heat inactivated (HyClone Laboratories Inc., Logan, UT, cat. SH30070.03HI), 50% L-WRN conditioned media (ATCC, cat. CRL-3276), 1.25 mM N-Acetyl-L-cysteine (Sigma-Aldrich, cat. A9165), 10 mM nicotinamide (Sigma-Aldrich, cat. N0636), 1X B-27 supplement (Thermo Fisher Scientific, cat. 17504044), 1X N-2 supplement (Thermo Fisher Scientific, cat. […]
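Further: spheroids exposed to compounds for one week.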
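Wherever viability, T/C is given: 100% = vehicle DMSO treated spheroids.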

`CCCS(=O)(=O)Nc1ccc(F)c(C(=O)c2c[nH]c3ncc(-c4ccc(Cl)cc4)cc23)c1F` + COC1C(OC(N)=O)C(O)C(Oc2ccc3c(O)c(NC(=O)c4ccc(O)c(CC=C(C)C)c4)c(=O)oc3c2C)OC1(C)C was tested, and the IC50 (second compound 0.0316 µM) was 6.53 µM, the IC50 (second compound 0.1 µM) was 6.39 µM and the IC50 (second compound 0.316 µM) was 6.59 µM. For the same molecule, the IC50 (second compound 1 µM) was 6.51 µM, the IC50 (second compound 3.16 µM) was 6.73 µM and the IC50 (second compound 10 µM) was 6.49 µM. It also gave a viability, T/C (second compound 0.0316 µM, first compound 0.0316 µM) of 103%, a viability, T/C (second compound 0.0316 µM, first compound 0.1 µM) of 109% and a viability, T/C (second compound 0.0316 µM, first compound 0.316 µM) of 101%. It also gave a viability, T/C (second compound 0.0316 µM, first compound 1 µM) of 118%, a viability, T/C (second compound 0.0316 µM, first compound 3.16 µM) of 106% and a viability, T/C (second compound 0.0316 µM, first compound 10 µM) of 16.7%. The viability, T/C (second compound 0.1 µM, first compound 0.0316 µM) was 108%, the viability, T/C (second compound 0.1 µM, first compound 0.1 µM) was 107% and the viability, T/C (second compound 0.1 µM, first compound 0.316 µM) was 104%. The viability, T/C (second compound 0.1 µM, first compound 1 µM) was 120%, the viability, T/C (second compound 0.1 µM, first compound 3.16 µM) was 104% and the viability, T/C (second compound 0.1 µM, first compound 10 µM) was 15.3%. For the same molecule, the viability, T/C (second compound 0.316 µM, first compound 0.0316 µM) was 105%, the viability, T/C (second compound 0.316 µM, first compound 0.1 µM) was 110% and the viability, T/C (second compound 0.316 µM, first compound 0.316 µM) was 109%. It also gave a viability, T/C (second compound 0.316 µM, first compound 1 µM) of 110%, a viability, T/C (second compound 0.316 µM, first compound 3.16 µM) of 109% and a viability, T/C (second compound 0.316 µM, first compound 10 µM) of 16.6%. For the same molecule, the viability, T/C (second compound 1 µM, first compound 0.0316 µM) was 103%, the viability, T/C (second compound 1 µM, first compound 0.1 µM) was 107% and the viability, T/C (second compound 1 µM, first compound 0.316 µM) was 101%. It also gave a viability, T/C (second compound 1 µM, first compound 1 µM) of 112%, a viability, T/C (second compound 1 µM, first compound 3.16 µM) of 109% and a viability, T/C (second compound 1 µM, first compound 10 µM) of 16.5%. It also gave a viability, T/C (second compound 3.16 µM, first compound 0.0316 µM) of 106%, a viability, T/C (second compound 3.16 µM, first compound 0.1 µM) of 101% and a viability, T/C (second compound 3.16 µM, first compound 0.316 µM) of 111%. The viability, T/C (second compound 3.16 µM, first compound 1 µM) was 112%, the viability, T/C (second compound 3.16 µM, first compound 3.16 µM) was 112% and the viability, T/C (second compound 3.16 µM, first compound 10 µM) was 19.3%. The viability, T/C (second compound 10 µM, first compound 0.0316 µM) was 107%, the viability, T/C (second compound 10 µM, first compound 0.1 µM) was 104% and the viability, T/C (second compound 10 µM, first compound 0.316 µM) was 109%. It also gave a viability, T/C (second compound 10 µM, first compound 1 µM) of 105%, a viability, T/C (second compound 10 µM, first compound 3.16 µM) of 105% and a viability, T/C (second compound 10 µM, first compound 10 µM) of 17.2%.
